Where two headings read alike, the source gives them in different places.
What was measured:
[1] = test system: human CYPs; conditions: cited from earlier work
[2] = test system: CYP2B6; conditions: cited from earlier work
[3] = test system: CYP2C19; conditions: cited from earlier work
[4] = test system: phosphatidylinositol glycan anchor biosynthesis class W (PIGW); set-up: method as in PMID 33105672, PMID 34626339; conditions: cited from earlier work
[5] = test system: CYP1A2; conditions: cited from earlier work
[6] = test system: CYP2D6; conditions: cited from earlier work
[7] = mice infected with C. albicans and C. glabrata; cited from earlier work
[8] = Plasma pharmacokinetics of MGX and FMGX (noncompartmental analysis), phase 1 fixed-sequence DDI study with itraconazole or rifampin; type: in vivo, human; conditions: for Vd: read-out: MGX Vz; for Tmax: median (range)
Protocol: In cohort 1, MGX plasma samples were collected at specified time points daily on days 1–4, once every 2 days on days 6–14, daily for 3 days from days 18 to 20, once every 2 days from days 21 to 29, and then on day 31, while itraconazole samples were collected at specified time points on days 19, 25, and 31. […] PK parameters were calculated using noncompartmental analysis from the plasma concentration-time data for MGX and FMGX. Primary PK parameters were maximum observed plasma concentration (Cmax), AUC from time 0 to infinity (AUC0-inf), and AUC up to time t (AUC0-t, where t was the last time point with concentrations above the lower limit of quantitation). […] Secondary PK parameters were time to attain Cmax (Tmax), AUC from time 0 to 23 hours (AUC0-23), terminal elimination half-life after the last dosing on the day (t1/2), clearance (CL), volume of distribution at terminal phase (Vz), and terminal phase rate constant after the last dosing on the day (λz).

[9] = test system: CYP2C9; conditions: cited from earlier work
[10] = test system: CYP2A6; conditions: cited from earlier work
[11] = test system: CYP3A4; conditions: cited from earlier work
[12] = test system: CYP2C8; conditions: cited from earlier work
[13] = test system: recombinant human CYP (rCYP) enzymes; conditions: cited from earlier work
[14] = test system: CYP2E1; conditions: cited from earlier work

For `Nc1ncccc1-c1cc(Cc2ccc(COc3ccccn3)cc2)no1` [MGX, manogepix], the “Reversible inhibition, other CYP isoforms” value [1] is given as “Weak or no inhibition”, the “Reversible inhibition of CYP2B6” value [2] is given as “observed” and the “Time-dependent inhibition of CYP2B6” value [2] is given as “weak time-dependent inhibition”. For the same molecule, the “Reversible inhibition of CYP2C19” value [3] was “observed”, the “Time-dependent inhibition of CYP2C19” value [3] was “no time-dependent inhibition” and the “Inhibition of PIGW, closest mammalian ortholog of GWT1” value [4] was “not inhibited”. The “Reversible inhibition of CYP1A2” value [5] was “observed”, the “Time-dependent inhibition of CYP1A2” value [5] was “no time-dependent inhibition” and the “Reversible inhibition of CYP2D6” value [6] was “observed”. For the same molecule, the “Time-dependent inhibition of CYP2D6” value [6] was “no time-dependent inhibition”, the “Exposure (AUC) and half-life of MGX after pre-administration of 1-aminobenzotriazole” value [7] was “increase” and the “MGX Vz” value ([8]; FMGX only 1000 mg BID IV, D1, Cohort 2, n = 17, geometric mean (geometric %CV)) was 190 (40.8) L. The AUC(0-inf) ([8]; human, in vivo, FMGX 500 mg BID IV D18 + ITR 200 mg QD PO D15-30, Cohort 1, n = 16, geometric mean (geometric %CV), read-out: MGX AUC(0-inf)) was 458 µg·h/mL, the AUC(0-t) ([8]; human, in vivo, FMGX 500 mg BID IV D18 + ITR 200 mg QD PO D15-30, Cohort 1, n = 16, geometric mean (geometric %CV), read-out: MGX AUC(0-t)) was 421 µg·h/mL and the Cmax ([8]; human, in vivo, FMGX 500 mg BID IV D18 + ITR 200 mg QD PO D15-30, Cohort 1, n = 16, geometric mean (geometric %CV), read-out: MGX Cmax) was 7060 ng/mL. The Vd ([8]; human, in vivo, FMGX 500 mg BID IV D18 + ITR 200 mg QD PO D15-30, Cohort 1, n = 16, geometric mean (geometric %CV)) was 195 L, the AUC(0-inf) ([8]; human, in vivo, FMGX 500 mg BID IV D18 + ITR 200 mg QD PO D15–30, Cohort 1, n = 16, read-out: MGX AUC(0-inf), least squares geometric mean) was 458 µg·h/mL and the AUC(0-t) ([8]; human, in vivo, FMGX 500 mg BID IV D18 + ITR 200 mg QD PO D15–30, Cohort 1, n = 16, read-out: MGX AUC(0-t), least squares geometric mean) was 421 µg·h/mL. The Cmax ([8]; human, in vivo, FMGX 500 mg BID IV D18 + ITR 200 mg QD PO D15–30, Cohort 1, n = 16, read-out: MGX Cmax, least squares geometric mean) was 7060 ng/mL, the AUC(0-inf) ([8]; human, in vivo, FMGX 1,000 mg BID IV D24 + RIF 600 mg QD PO D15–33, Cohort 2, n = 17, geometric mean (geometric %CV), read-out: MGX AUC(0-inf)) was 450 µg·h/mL and the AUC(0-t) ([8]; human, in vivo, FMGX 1,000 mg BID IV D24 + RIF 600 mg QD PO D15–33, Cohort 2, n = 17, geometric mean (geometric %CV), read-out: MGX AUC(0-t)) was 436 µg·h/mL. The Cmax ([8]; human, in vivo, FMGX 1,000 mg BID IV D24 + RIF 600 mg QD PO D15–33, Cohort 2, n = 17, geometric mean (geometric %CV), read-out: MGX Cmax) was 12100 ng/mL, the Vd ([8]; human, in vivo, FMGX 1,000 mg BID IV D24 + RIF 600 mg QD PO D15–33, Cohort 2, n = 17, geometric mean (geometric %CV)) was 205 L and the AUC(0-inf) ([8]; human, in vivo, FMGX 1,000 mg BID IV D24 + RIF 600 mg QD PO D15–33, Cohort 2, n = 17, read-out: MGX AUC(0-inf), least squares geometric mean) was 450 µg·h/mL. It also gave an AUC(0-t) ([8]; human, in vivo, FMGX 1,000 mg BID IV D24 + RIF 600 mg QD PO D15–33, Cohort 2, n = 17, read-out: MGX AUC(0-t), least squares geometric mean) of 436 µg·h/mL, a Cmax ([8]; human, in vivo, FMGX 1,000 mg BID IV D24 + RIF 600 mg QD PO D15–33, Cohort 2, n = 17, read-out: MGX Cmax, least squares geometric mean) of 12100 ng/mL and a half-life ([8]; human, in vivo, Terminal elimination half-life for MGX) of about 78 h. It also gave an AUC(0-inf) ([8]; human, in vivo, iv, 500 mg, FMGX only 500 mg BID IV, D1, Cohort 1, n = 16, geometric mean (geometric %CV), read-out: MGX AUC(0-inf)) of 460 µg·h/mL, an AUC(0-t) ([8]; human, in vivo, iv, 500 mg, FMGX only 500 mg BID IV, D1, Cohort 1, n = 16, geometric mean (geometric %CV), read-out: MGX AUC(0-t)) of 429 µg·h/mL and a Cmax ([8]; human, in vivo, iv, 500 mg, FMGX only 500 mg BID IV, D1, Cohort 1, n = 16, geometric mean (geometric %CV), read-out: MGX Cmax) of 6940 ng/mL. For the same molecule, the Vd ([8]; human, in vivo, iv, 500 mg, FMGX only 500 mg BID IV, D1, Cohort 1, n = 16, geometric mean (geometric %CV)) was 185 L, the AUC(0-inf) ([8]; human, in vivo, iv, 500 mg, FMGX only 500 mg BID IV, D1, Cohort 1, n = 16, read-out: MGX AUC(0-inf), least squares geometric mean) was 460 µg·h/mL and the AUC(0-t) ([8]; human, in vivo, iv, 500 mg, FMGX only 500 mg BID IV, D1, Cohort 1, n = 16, read-out: MGX AUC(0-t), least squares geometric mean) was 429 µg·h/mL. The Cmax ([8]; human, in vivo, iv, 500 mg, FMGX only 500 mg BID IV, D1, Cohort 1, n = 16, read-out: MGX Cmax, least squares geometric mean) was 6940 ng/mL, the clearance ([8]; human, in vivo, iv, 500 mg, MGX CL) was 27.7 mL/min and the half-life ([8]; human, in vivo, iv, 500 mg, MGX t1/2) was 77.3 h. The “MGX CL” value ([8]; human, in vivo, iv, 1000 mg) was 1,862 (18.5) mL/h, the AUC(0-inf) ([8]; human, in vivo, iv, 1000 mg, FMGX only 1000 mg BID IV, D1, Cohort 2, n = 17, geometric mean (geometric %CV), read-out: MGX AUC(0-inf)) was 822 µg·h/mL and the AUC(0-t) ([8]; human, in vivo, iv, 1000 mg, FMGX only 1000 mg BID IV, D1, Cohort 2, n = 17, geometric mean (geometric %CV), read-out: MGX AUC(0-t)) was 772 µg·h/mL. It also gave a Cmax ([8]; human, in vivo, iv, 1000 mg, FMGX only 1000 mg BID IV, D1, Cohort 2, n = 17, geometric mean (geometric %CV), read-out: MGX Cmax) of 13900 ng/mL, an AUC(0-inf) ([8]; human, in vivo, iv, 1000 mg, FMGX only 1,000 mg BID IV, D1, Cohort 2, n = 17, read-out: MGX AUC(0-inf), least squares geometric mean) of 822 µg·h/mL and an AUC(0-t) ([8]; human, in vivo, iv, 1000 mg, FMGX only 1,000 mg BID IV, D1, Cohort 2, n = 17, read-out: MGX AUC(0-t), least squares geometric mean) of 772 µg·h/mL. It also gave a Cmax ([8]; human, in vivo, iv, 1000 mg, FMGX only 1,000 mg BID IV, D1, Cohort 2, n = 17, read-out: MGX Cmax, least squares geometric mean) of 13900 ng/mL, a half-life ([8]; human, in vivo, iv, 1000 mg, MGX t1/2) of 70.7 h and a Tmax ([8]; human, in vivo, FMGX 500 mg BID IV D18 + ITR 200 mg QD PO D15-30, Cohort 1, n = 16) of 12 h. For the same molecule, the Tmax ([8]; human, in vivo, FMGX only 500 mg BID IV, D1, Cohort 1, n = 16) was 12 h, the Tmax ([8]; human, in vivo, FMGX only 1000 mg BID IV, D1, Cohort 2, n = 17) was 12 h and the “Reversible inhibition of CYP2C9” value [9] was “observed”. For the same molecule, the “Time-dependent inhibition of CYP2C9” value [9] was “no time-dependent inhibition”, the “Time-dependent inhibition of CYP2A6” value [10] was “no time-dependent inhibition” and the “Reversible inhibition of CYP3A4” value [11] was “observed”. For the same molecule, the “Time-dependent inhibition of CYP3A4” value [11] was “weak time-dependent inhibition”, the “Reversible inhibition of CYP2C8” value [12] was “observed” and the “Time-dependent inhibition of CYP2C8” value [12] was “no time-dependent inhibition”. For the same molecule, the “Enzymes involved in formation of MGX-derived metabolites” value [13] was “multiple recombinant human CYP (rCYP) enzymes were involved” and the “Time-dependent inhibition of CYP2E1” value [14] was “no time-dependent inhibition”.

Source: paper PMC11620482, “Phase 1 drug-drug interaction study to assess the effect of CYP3A4 inhibition and pan-CYP induction on the pharmacokinetics and safety of fosmanogepix in healthy participants” (Antimicrobial Agents and Chemotherapy, 2024)
